The values that follow come from patent US20070129419A1, “Serotonin transporter (SERT) inhibitors for the treatment of depression and anxiety” (priority 2005, published 2007).

Each structure is given as a SMILES string. Read-outs that look alike come from different tables or passages of the source.

One test concerns the target T1, recombinant human SERT (Homo sapiens, UniProt P31645).
T1 construct: expressed in transfected cells; membrane preparation
Nature of the test: hSERT SPA binding assay ([3H]citalopram displacement, HEK-293 membranes). As for the experimental part:
HEK-293 cells stably expressing recombinant human SERT are maintained with DMEM high glucose with 10% FBS, 300 μg/ml G418 and 2 mM L-Glutamine and incubated at 37° C. with 5% CO2. Cells are released from culture flasks using PBS for 1-2 min. The cells are subsequently centrifuged at 1000 g's for 5 min and resuspended in PBS prior to being used in the membrane preparation.
Cells are homogenized using a Polytron in 50 mM Tris (pH 7.4). Centrifuged at 48,000×g for 15 min, and the pellet resuspended in fresh buffer. After a second centrifugation, the pellet is re-homogenized and resuspended in fresh buffer. Typically, membrane portions are aliquoted in 3 mg/ml (w:v). and stored at −80° C.
A serial dilution of test compounds in 50 mM Tris-HCl, 120 mM NaCl, KCl 5 mM (pH 7.4) is made in a white Optiplate (Packard) (100 μl/well) and the radioligand ^3[H] Citalopram (Specific activity: 60-86 Ci/mmol, Final concentration: 1 nM) is added at 50 μl/well. Membrane and beads are prepared to a ratio of 5 μg:0.6 mg, with 0.6 mg PVT-WGA Amersham beads (Cat#RPQ0282V) added per well. 50 μl of the membrane/bead mixture is added to the assay plate for a final volume of 200 μl. The mixtures are allowed to stand at room temperature for one hour, and are then counted on a Packard TopCount.
The % inhibition is calculated for each compound tested (with 100% binding being the value obtained with the incubation of membrane/beads and radioligand in buffer without compound minus the non-specific binding measured in presence of 10 μM Fluoxetine). The concentration producing 50% inhibition (IC50) is determined using an iterative non-linear curve fitting technique. The inhibition dissociation constant (Ki) of each compound is determined according to the method of Cheng-Prusoff, decribed in Biochem. Pharmacol., 1973, 22(23), pages 3099-3108.

A further test deals with T2, human NK-1 receptor (Homo sapiens, UniProt P25103).
T2 construct: expressed in transfected cells; host or cells: CHO cells, Semliki virus expression system; membrane suspension
Nature of the test: hNK-1 binding assay ([3H]substance P displacement, CHO cells). Conditions: [3H]substance P 0.6 nM, CHO cells transfected with human NK-1 receptor; read-out: pKi hNK1 (converted). As for the experimental part: The affinity of test compounds for the NK-1 receptor was evaluated at human NK-1 receptors in CHO cells transfected with the human NK-1 receptor using the Semliki virus expression system and radiolabelled with [^3H]substance P (final concentration 0.6 nM). Binding assays were performed in HEPES buffer (50 mM, pH 7.4) containing BSA (0.04%) leupeptin (8 μg/ml), MnCl2 (3 mM) and phosphoramidon (2 μM). Binding assays consisted of 250 μl of membrane suspension (1.25×10^5 cells/assay tube), 125 μl of buffer of displacing agent and 125 μl of [^3H]substance P. Displacement curves were determined with at least ten concentrations of the compound. The assay tubes were incubated for 60 min at room temperature after which time the tube contents were rapidly filtered under vacuum through GF/C filters presoaked for 60 min with PEI (0.3%) with 2×2 ml washes of HEPES buffer (50 mM, pH 7.4). The radioactivity retained on the filters was measured by scintillation counting. All assays were performed in duplicate in at least 2 separate experiments.
The inhibition dissociation constant (Ki) of each compound for NK1 is determined as described above for hSERT.

Setting [1] is: [3H]citalopram 1 nM, HEK-293 membranes expressing human SERT, read-out: pKi hSERT (converted).

T1 sequence (P31645 whole entry): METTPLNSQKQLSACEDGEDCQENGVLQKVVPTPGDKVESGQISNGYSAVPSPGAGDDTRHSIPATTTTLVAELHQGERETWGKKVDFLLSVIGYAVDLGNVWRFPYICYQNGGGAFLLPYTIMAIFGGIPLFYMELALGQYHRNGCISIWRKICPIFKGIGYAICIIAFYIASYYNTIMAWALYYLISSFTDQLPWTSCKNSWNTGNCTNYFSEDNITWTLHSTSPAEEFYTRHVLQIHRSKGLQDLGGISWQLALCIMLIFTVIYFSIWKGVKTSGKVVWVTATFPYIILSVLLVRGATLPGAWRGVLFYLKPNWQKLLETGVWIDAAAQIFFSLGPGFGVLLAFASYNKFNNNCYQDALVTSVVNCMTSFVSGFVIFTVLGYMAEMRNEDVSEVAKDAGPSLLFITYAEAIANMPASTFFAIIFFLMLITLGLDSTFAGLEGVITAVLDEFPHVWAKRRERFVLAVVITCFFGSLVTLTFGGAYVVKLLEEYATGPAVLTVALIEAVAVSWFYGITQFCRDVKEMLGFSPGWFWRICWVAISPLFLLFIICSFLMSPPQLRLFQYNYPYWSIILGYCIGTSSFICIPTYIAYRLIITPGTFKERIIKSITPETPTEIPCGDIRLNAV
T2 sequence (P25103 whole entry): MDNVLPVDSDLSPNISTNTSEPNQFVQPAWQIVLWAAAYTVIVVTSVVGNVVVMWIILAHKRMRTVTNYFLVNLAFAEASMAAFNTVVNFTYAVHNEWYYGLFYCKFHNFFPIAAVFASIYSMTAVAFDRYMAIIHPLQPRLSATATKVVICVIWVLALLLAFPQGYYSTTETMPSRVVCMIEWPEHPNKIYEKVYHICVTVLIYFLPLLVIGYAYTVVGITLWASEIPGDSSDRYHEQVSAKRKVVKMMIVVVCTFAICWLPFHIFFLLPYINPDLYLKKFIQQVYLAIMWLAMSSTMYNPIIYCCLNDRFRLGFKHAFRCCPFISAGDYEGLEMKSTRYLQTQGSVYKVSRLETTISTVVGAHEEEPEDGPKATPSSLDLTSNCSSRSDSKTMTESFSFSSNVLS

As to `FC(F)(F)c1cc(CNC[C@H]2CNC[C@H]2c2ccccc2)cc(C(F)(F)F)c1` [16 of I], the values for the Ki at recombinant human SERT (setting [1]) and at human NK-1 receptor were 22.9 nM and 26.3 nM, respectively.

With `CN(Cc1cc(C(F)(F)F)cc(C(F)(F)F)c1)C[C@H]1CNC[C@H]1c1ccccc1` [17 of I], the figures for the Ki on recombinant human SERT (setting [1]) and on human NK-1 receptor were 8.13 nM and 31.6 nM, respectively.

Regarding `FC(F)(F)c1cc(COC[C@H]2CNC[C@H]2c2ccccc2)cc(C(F)(F)F)c1` [8 of I], the Ki is 4.9 nM at recombinant human SERT (setting [1]) and 43.7 nM at human NK-1 receptor.

Take `FC(F)(F)c1cccc(COC[C@H]2CNC[C@H]2c2ccccc2)c1` [12 of I]: the Ki was 11 nM on recombinant human SERT (setting [1]) and 676 nM at human NK-1 receptor.

As for `FC(F)(F)c1cc(COC[C@H]2CNC[C@H]2c2ccc(Cl)cc2)cc(C(F)(F)F)c1` [4 of I], the Ki on recombinant human SERT (setting [1]) was 4.47 nM; on human NK-1 receptor, 53.7 nM.

On to `FC(F)(F)c1ccccc1COC[C@H]1CNC[C@H]1c1ccccc1` [15 of I], for which the Ki was 70.8 nM at recombinant human SERT (setting [1]) and 646 nM on human NK-1 receptor.

Consider `COc1cc(COC[C@H]2CNC[C@H]2c2ccccc2)cc(OC)c1` [14 of I], for which the results for the Ki on recombinant human SERT (setting [1]) and at human NK-1 receptor were 20.4 nM and 741 nM, respectively.

Take `FC(F)(F)Oc1cccc(COC[C@H]2CNC[C@H]2c2ccccc2)c1` [13 of I]: the Ki on recombinant human SERT (setting [1]) was 13.8 nM; on human NK-1 receptor, 759 nM.

For the molecule `Fc1ccccc1[C@@H]1CNC[C@@H]1COCc1cc(C(F)(F)F)cc(C(F)(F)F)c1` [3 of I], the figures for the Ki at recombinant human SERT (setting [1]) and on human NK-1 receptor were 3.47 nM and 50.1 nM, respectively.

As to `Brc1cc(Br)cc(COC[C@H]2CNCC2c2ccccc2)c1` (stereo partly shown) [9 of I], the Ki was 5.89 nM at recombinant human SERT (setting [1]) and 41.7 nM at human NK-1 receptor.

As for `FC(F)(F)c1cc(COC[C@H]2CNC[C@H]2c2ccccc2Cl)cc(C(F)(F)F)c1` [6 of I], the Ki is 10.2 nM on recombinant human SERT (setting [1]) and 43.7 nM on human NK-1 receptor.

For the molecule `Cc1cc(C)cc(COC[C@H]2CNC[C@H]2c2ccccc2)c1` [10 of I], the figures for the Ki on recombinant human SERT (setting [1]) and on human NK-1 receptor were 4.57 nM and 257 nM, respectively.

On to `Fc1cc(COC[C@H]2CNC[C@H]2c2ccccc2)cc(C(F)(F)F)c1` [11 of I], for which the figures for the Ki on recombinant human SERT (setting [1]) and at human NK-1 receptor were 5.75 nM and 224 nM, respectively.

In the case of `Fc1ccc([C@@H]2CNC[C@@H]2COCc2cc(C(F)(F)F)cc(C(F)(F)F)c2)cc1` [1 of I], the Ki is 2.75 nM at recombinant human SERT and 295 nM on human NK-1 receptor.

With `Cc1ccccc1[C@@H]1CNC[C@@H]1COCc1cc(C(F)(F)F)cc(C(F)(F)F)c1` [7 of I], the Ki at recombinant human SERT (setting [1]) is 7.59 nM; on human NK-1 receptor, 28.8 nM.

With `Fc1cccc([C@@H]2CNC[C@@H]2COCc2cc(C(F)(F)F)cc(C(F)(F)F)c2)c1` [2 of I], the figures for the Ki at recombinant human SERT (setting [1]) and at human NK-1 receptor were 5.89 nM and 46.8 nM, respectively.

Consider `FC(F)(F)c1cc(COC[C@H]2CNC[C@H]2c2cccc(Cl)c2)cc(C(F)(F)F)c1` [5 of I], for which the Ki was 8.13 nM on recombinant human SERT (setting [1]) and 31.6 nM on human NK-1 receptor.
